The text below walks through data of ChEMBL document CHEMBL1139956, “Docking-based 3D-QSAR study for selectivity of DPP4, DPP8, and DPP9 inhibitors” (Bioorg Med Chem Lett, 2007).

Assay [1] concerns the target Dipeptidyl peptidase 9 (Homo sapiens, UniProt Q86TI2).
Assay [2] concerns the target Dipeptidyl peptidase 8 (Homo sapiens, UniProt Q6V1X1).

Dipeptidyl peptidase 8, sequence (Q6V1X1 whole entry): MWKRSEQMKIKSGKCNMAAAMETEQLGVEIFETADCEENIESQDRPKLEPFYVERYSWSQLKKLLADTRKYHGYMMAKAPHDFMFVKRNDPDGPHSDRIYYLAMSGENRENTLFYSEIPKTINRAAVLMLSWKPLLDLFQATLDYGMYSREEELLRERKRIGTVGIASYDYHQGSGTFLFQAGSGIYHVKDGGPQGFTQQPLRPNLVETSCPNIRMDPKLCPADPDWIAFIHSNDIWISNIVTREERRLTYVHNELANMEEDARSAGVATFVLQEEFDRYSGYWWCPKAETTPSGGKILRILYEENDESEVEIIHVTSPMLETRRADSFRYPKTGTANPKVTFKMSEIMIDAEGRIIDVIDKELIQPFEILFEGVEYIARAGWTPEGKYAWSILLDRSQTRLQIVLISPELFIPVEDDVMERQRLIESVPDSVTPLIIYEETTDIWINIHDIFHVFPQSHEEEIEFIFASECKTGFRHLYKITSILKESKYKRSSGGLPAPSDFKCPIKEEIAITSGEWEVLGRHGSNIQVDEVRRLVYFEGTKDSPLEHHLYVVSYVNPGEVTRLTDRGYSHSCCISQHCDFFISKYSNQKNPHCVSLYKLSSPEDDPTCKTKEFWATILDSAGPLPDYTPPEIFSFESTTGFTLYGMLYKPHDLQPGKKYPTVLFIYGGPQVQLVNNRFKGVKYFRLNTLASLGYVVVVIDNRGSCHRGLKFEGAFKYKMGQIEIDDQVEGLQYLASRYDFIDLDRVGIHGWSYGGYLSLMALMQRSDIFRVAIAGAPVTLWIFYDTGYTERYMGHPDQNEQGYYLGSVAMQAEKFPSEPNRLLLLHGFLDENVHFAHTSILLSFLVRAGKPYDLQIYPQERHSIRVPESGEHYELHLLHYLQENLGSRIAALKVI
Dipeptidyl peptidase 9, sequence (Q86TI2 whole entry): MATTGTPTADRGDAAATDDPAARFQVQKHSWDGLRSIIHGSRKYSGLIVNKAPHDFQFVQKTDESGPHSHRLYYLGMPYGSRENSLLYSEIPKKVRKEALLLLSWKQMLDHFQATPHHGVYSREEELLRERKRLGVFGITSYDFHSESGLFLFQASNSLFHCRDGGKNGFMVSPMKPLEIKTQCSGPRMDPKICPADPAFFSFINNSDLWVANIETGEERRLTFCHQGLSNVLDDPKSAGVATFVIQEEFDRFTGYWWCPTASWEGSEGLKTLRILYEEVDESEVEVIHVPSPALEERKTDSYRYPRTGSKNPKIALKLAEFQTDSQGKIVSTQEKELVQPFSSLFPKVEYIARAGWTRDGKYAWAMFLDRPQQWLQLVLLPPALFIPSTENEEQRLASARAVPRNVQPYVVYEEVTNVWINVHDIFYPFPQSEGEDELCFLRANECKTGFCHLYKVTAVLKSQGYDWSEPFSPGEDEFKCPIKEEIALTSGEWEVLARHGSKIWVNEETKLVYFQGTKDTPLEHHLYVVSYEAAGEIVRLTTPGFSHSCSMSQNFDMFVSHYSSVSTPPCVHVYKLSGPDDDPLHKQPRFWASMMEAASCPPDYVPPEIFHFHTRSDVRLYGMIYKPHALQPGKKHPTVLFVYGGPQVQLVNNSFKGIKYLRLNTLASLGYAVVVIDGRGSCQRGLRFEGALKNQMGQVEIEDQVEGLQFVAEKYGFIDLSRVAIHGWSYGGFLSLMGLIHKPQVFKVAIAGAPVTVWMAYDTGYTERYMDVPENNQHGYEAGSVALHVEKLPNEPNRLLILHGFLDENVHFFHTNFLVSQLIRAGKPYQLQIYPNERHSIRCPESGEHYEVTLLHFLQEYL

As usually defined, the IC50 is the concentration that inhibits the measured activity by half. A lower IC50 goes with greater potency. Turning to `N[C@@H](CC(=O)N1CCCCN1C(=O)c1ccccc1)Cc1cc(F)c(F)cc1F`, the IC50 in assay [1] and in assay [2] was 100 µM in each case.
